{"source": "patent US11628228B2", "about": "“99mTc-labeled isonitrile-containing glucose derivative and preparation method and use thereof” (Beijing Shihong Pharmaceutical Research Center, priority 2017, dated 2023)", "key": {"[1]": {"tested_on": "tumor-bearing mice", "test": "SPECT imaging in tumor-bearing mice", "format": "in vivo", "details": "0.2 mL, 700 μCi tail vein, imaging 1 hour later", "method": "The prepared [^99mTc-(CN3DG)6]^+ or [^99mTc-(CN5DG)6]^+ (0.2 mL, 700 μCi) is injected into tumor-bearing mice through tail vein, and SPECT imaging is performed 1 hour later."}, "[2]": {"tested_on": "S180-bearing mice", "test": "Bio-distribution in tumor-bearing mice", "format": "in vivo", "details": "for Blood uptake / Bone uptake / Heart uptake / Kidney uptake / Liver uptake / Lung uptake / Muscle uptake / Small intestine uptake / Spleen uptake / Stomach uptake / Tumor uptake / Tumor/blood ratio / Tumor/muscle ratio: S180-bearing mice, tail vein", "method": "The labeled solution (0.1 mL, 74 KBq) is injected into mice through the tail vein, and the injection time is recorded. Then the mice were killed by cervical dislocation at different time phases (30 minutes, 60 minutes, and 120 minutes), five mice for each time phase, and the organs of interest such as heart, liver, lung, kidney, spleen, stomach, muscle, blood and tumor are taken out after dissection, and measured with a γ-counter for the radioactive count of each organ. The uptake value of each organ is obtained by calculation based on the mass of the organ (with % ID/g as the unit)."}, "[3]": {"test": "Determination of the lipid-water partition coefficient (n-octanol/PBS)", "format": "physicochemical", "method": "One hundred μL of the labeled substance solution (50 μCi) diluted with normal saline is placed into a 2 mL centrifuge tube, and then 800 μL of n-octanol and 700 μL of PBS are added to the centrifuge tube, which is subsequently covered with a cap. The centrifuge tube is vortexed for 3 minutes (2500 r/minute), allowed to stand until the solution is layered, and centrifuged in a centrifuge for 3 minutes (3000 r/minute). Three samples of the upper organic phase and three samples of the lower aqueous phase are taken, each 100 μL, and detected in a γ-counter for the radioactive counts of the organic and aqueous phases, respectively."}}, "data": [{"smiles": "O=C(CCCCC[N+]#[C][99Tc-5]([C]#[N+]CCCCCC(=O)NC1C(O)OC(CO)C(O)C1O)([C]#[N+]CCCCCC(=O)NC1C(O)OC(CO)C(O)C1O)([C]#[N+]CCCCCC(=O)NC1C(O)OC(CO)C(O)C1O)([C]#[N+]CCCCCC(=O)NC1C(O)OC(CO)C(O)C1O)[C]#[N+]CCCCCC(=O)NC1C(O)OC(CO)C(O)C1O)NC1C(O)OC(CO)C(O)C1O", "note": "(centres unmarked) [[^99mTc-(CN5DG)6]^+]", "values": [{"measurement": "SPECT imaging: aggregation at the tumor sites", "setting": "[1]", "result": "evident aggregation at the tumor sites"}, {"measurement": "SPECT imaging: concentration in kidney", "setting": "[1]", "result": "relatively high concentration in kidney"}, {"measurement": "SPECT imaging: uptake in other organs", "setting": "[1]", "result": "relatively low"}, {"measurement": "Blood uptake", "setting": "[2]; 30 min", "result": "1.58 ± 0.15", "unit": "% ID/g"}, {"measurement": "Bone uptake", "setting": "[2]; 30 min", "result": "0.72 ± 0.11", "unit": "% ID/g"}, {"measurement": "Heart uptake", "setting": "[2]; 30 min", "result": "0.64 ± 0.12", "unit": "% ID/g"}, {"measurement": "Kidney uptake", "setting": "[2]; 30 min", "result": "4.69 ± 0.76", "unit": "% ID/g"}, {"measurement": "Liver uptake", "setting": "[2]; 30 min", "result": "0.61 ± 0.07", "unit": "% ID/g"}, {"measurement": "Lung uptake", "setting": "[2]; 30 min", "result": "1.58 ± 0.18", "unit": "% ID/g"}, {"measurement": "Muscle uptake", "setting": "[2]; 30 min", "result": "0.46 ± 0.05", "unit": "% ID/g"}, {"measurement": "Small intestine uptake", "setting": "[2]; 30 min", "result": "0.74 ± 0.09", "unit": "% ID/g"}, {"measurement": "Spleen uptake", "setting": "[2]; 30 min", "result": "0.51 ± 0.08", "unit": "% ID/g"}, {"measurement": "Stomach uptake", "setting": "[2]; 30 min", "result": "0.50 ± 0.09", "unit": "% ID/g"}, {"measurement": "Tumor uptake", "setting": "[2]; 30 min", "result": "1.83 ± 0.18", "unit": "% ID/g"}, {"measurement": "Tumor/blood ratio", "setting": "[2]; 30 min", "result": 1.16}, {"measurement": "Tumor/muscle ratio", "setting": "[2]; 30 min", "result": 3.98}, {"measurement": "Blood uptake", "setting": "[2]; 60 min", "result": "0.55 ± 0.17", "unit": "% ID/g"}, {"measurement": "Bone uptake", "setting": "[2]; 60 min", "result": "0.41 ± 0.15", "unit": "% ID/g"}, {"measurement": "Heart uptake", "setting": "[2]; 60 min", "result": "0.41 ± 0.02", "unit": "% ID/g"}, {"measurement": "Kidney uptake", "setting": "[2]; 60 min", "result": "2.68 ± 0.32", "unit": "% ID/g"}, {"measurement": "Liver uptake", "setting": "[2]; 60 min", "result": "0.38 ± 0.08", "unit": "% ID/g"}, {"measurement": "Lung uptake", "setting": "[2]; 60 min", "result": "0.59 ± 0.16", "unit": "% ID/g"}, {"measurement": "Muscle uptake", "setting": "[2]; 60 min", "result": "0.27 ± 0.10", "unit": "% ID/g"}, {"measurement": "Small intestine uptake", "setting": "[2]; 60 min", "result": "0.43 ± 0.07", "unit": "% ID/g"}, {"measurement": "Spleen uptake", "setting": "[2]; 60 min", "result": "0.28 ± 0.07", "unit": "% ID/g"}, {"measurement": "Stomach uptake", "setting": "[2]; 60 min", "result": "0.37 ± 0.14", "unit": "% ID/g"}, {"measurement": "Tumor uptake", "setting": "[2]; 60 min", "result": "1.07 ± 0.21", "unit": "% ID/g"}, {"measurement": "Tumor/blood ratio", "setting": "[2]; 60 min", "result": 1.94}, {"measurement": "Tumor/muscle ratio", "setting": "[2]; 60 min", "result": 3.96}, {"measurement": "Blood uptake", "setting": "[2]; 120 min", "result": "0.16 ± 0.02", "unit": "% ID/g"}, {"measurement": "Bone uptake", "setting": "[2]; 120 min", "result": "0.15 ± 0.04", "unit": "% ID/g"}, {"measurement": "Heart uptake", "setting": "[2]; 120 min", "result": "0.22 ± 0.04", "unit": "% ID/g"}, {"measurement": "Kidney uptake", "setting": "[2]; 120 min", "result": "2.07 ± 0.13", "unit": "% ID/g"}, {"measurement": "Liver uptake", "setting": "[2]; 120 min", "result": "0.34 ± 0.08", "unit": "% ID/g"}, {"measurement": "Lung uptake", "setting": "[2]; 120 min", "result": "0.29 ± 0.06", "unit": "% ID/g"}, {"measurement": "Muscle uptake", "setting": "[2]; 120 min", "result": "0.18 ± 0.03", "unit": "% ID/g"}, {"measurement": "Small intestine uptake", "setting": "[2]; 120 min", "result": "0.22 ± 0.08", "unit": "% ID/g"}, {"measurement": "Spleen uptake", "setting": "[2]; 120 min", "result": "0.17 ± 0.02", "unit": "% ID/g"}, {"measurement": "Stomach uptake", "setting": "[2]; 120 min", "result": "0.35 ± 0.06", "unit": "% ID/g"}, {"measurement": "Tumor uptake", "setting": "[2]; 120 min", "result": "0.75 ± 0.07", "unit": "% ID/g"}, {"measurement": "Tumor/blood ratio", "setting": "[2]; 120 min", "result": 4.69}, {"measurement": "Tumor/muscle ratio", "setting": "[2]; 120 min", "result": 4.16}, {"measurement": "Tumor/liver ratio", "setting": "[2]; tumor-bearing mice, 0.5 hour after injection", "result": 3.00}, {"measurement": "Log P (lipid-water partition coefficient)", "setting": "[3]", "result": "−3.57±0.35"}]}]}
